Consider 4 molecules from patent US20230406911A1, “COMPOSITIONS AND METHODS FOR PREVENTING, INHIBITING, DISRUPTING, OR TREATING A POLYMICROBIAL BIOFILM” (priority 2020, published 2023).

Assay [1] concerns established NTHI biofilms. The settings on record: antibiotic at concentrations ≥4-fold below the MIC; Brockson et al., 2014; cited from earlier work.
Assay [2] has as its system NTHI. The experiment in a line: Antibiotic sensitivity of biofilm-resident, planktonic or NRel NTHI. The settings on record: for sensitivity of biofilm-resident NTHI to killing: 16 h biofilm, same concentrations as for planktonic/NRel; for sensitivity of biofilm-resident NTHI to killing / killing of planktonic NTHI at the concentration chosen for the assay: 2 h antibiotic exposure; for sensitivity of anti-IHF NRel to killing, compared with planktonic NTHI / sensitivity of anti-IHF NRel to killing, compared with biofilm-resident NTHI: NRel collected after 15 min anti-IHF IgG, TMP-SMX 0.09/0.45 μg/ml, AMC 0.30/0.15 μg/ml; for sensitivity of anti-IHF NRel to killing, compared with planktonic NTHI: 2 h (FIG. 5d, 5e); for sensitivity of anti-IHF NRel to killing, compared with biofilm-resident NTHI / sensitivity of anti-rsPilA NRel to killing, compared with biofilm-resident NTHI: 2 h, P≤0.0001; for susceptibility of time-matched anti-IHF NRel to killing, compared with planktonic NTHI: NRel collected after 2 h anti-IHF IgG, TMP-SMX 0.94/4.7 μg/ml, AMC 2.5/1.25 μg/ml (FIG. 6c, 6d); for susceptibility of time-matched anti-rsPilA NRel to killing, compared with planktonic NTHI: NRel collected after 2 h anti-rsPilA IgG, TMP-SMX 0.09/0.45 μg per ml, AMC 0.3/0.15 μg per ml (FIG. 6a, 6b); for sensitivity of anti-rsPilA NRel to killing, compared with planktonic NTHI / sensitivity of anti-rsPilA NRel to killing, compared with biofilm-resident NTHI: NRel collected after 6 h anti-rsPilA IgG, TMP-SMX 0.94/4.7 μg per ml, AMC 2.5/1.25 μg per ml; for sensitivity of anti-rsPilA NRel to killing, compared with planktonic NTHI: 2 h (FIG. 5b, 5c); for killing of planktonic NTHI at the concentration chosen for the assay: mid-log planktonic NTHI density-matched to NRel. In kind it is cell-based, Nontypeable Haemophilus influenzae strain 86-028NP. Here is the method: To avoid excessive manipulation or dilution of NRel NTHI, and to permit direct comparison of equal numbers of planktonic and NRel, Applicant adjusted the planktonic cell density to the same CFU per ml as the NRel population in each experiment as follows: NTHI were incubated statically to mid log phase growth then diluted to either 3×10^8 CFU/ml for comparison with anti-rsPilA NRel collected at 6 h, or to 2×10^8 CFU/ml for comparison with anti-IHF NRel collected at 15 min (see FIG. 1). Applicant then determined the concentrations of amoxicillin (Sigma-Aldrich, St. Louis, MO) and clavulanate (U.S. Pharmacopeia, Rockville, MD), or of trimethoprim (Sigma-Aldrich) and sulfamethoxazole (Santa Cruz Biotech, Dallas, TX) that killed approximately 25% of planktonic NTHI at each density. The same antibiotic concentrations were used for the anti-IHF or anti-rsPilA NRel, the density-matched (same CFU/ml) planktonic NTHI, and the adherent biofilm for each relevant experiment. […] Applicant then assessed killing of anti-IHF or anti-rsPilA NRel by concentrations of amoxicillin plus clavulanic acid (“augmentin”, AMC) or trimethoprim plus sulfamethoxazole (TMP-SMX) that killed 25% of the planktonic NTHI at the same density.
Anti-rsPilA or anti-IHF NRel were collected and sonicated as described above. After sonication for 2 min in a water bath sonicator to break up any NTHI aggregates, NRel or planktonic NTHI were incubated with the indicated antibiotics at 37° C. for 2 h, then serially diluted and plated on chocolate agar to quantify viable NTHI. To assay biofilm-resident NTHI, biofilms were established for 16 h at 37° C. as described above, washed twice with DPBS and incubated in sBHI supplemented with the indicated antibiotics at 37° C. After 2 h, biofilm-resident NTHI were collected by forceful pipetting, sonicated for 2 min and enumerated as described above. All experiments were performed at least three times on separate days with two or three technical replicates for each treatment and control group.

The test system of assay [3] is NRel NTHI. The conditions noted are these: Mokrzan et al., 2018; cited from earlier work.
Assay [4] concerns NRel M. catarrhalis. The conditions noted are these: Mokrzan et al., 2018; cited from earlier work.

Turning to `CC1(C)S[C@@H]2[C@H](NC(=O)[C@H](N)c3ccccc3)C(=O)N2[C@H]1C(=O)O` [ampicillin], the “sensitivity to killing of NTHI biofilms co-exposed to anti-DNABII antiserum, compared to planktonic counterparts” value in assay [1] is “significantly more sensitive”.
As for “trimethoprim plus sulfamethoxazole [TMP-SMX]”, in assay [2], the “sensitivity of biofilm-resident NTHI to killing” value is reported as “minimal sensitivity”; the “sensitivity of anti-IHF NRel to killing, compared with planktonic NTHI” value is on record as “only equally as sensitive”; the “sensitivity of anti-IHF NRel to killing, compared with biofilm-resident NTHI” value was “significantly more sensitive”; the “susceptibility of time-matched anti-IHF NRel to killing, compared with planktonic NTHI” value is on record as “equally susceptible”. In addition, in assay [2], the “susceptibility of time-matched anti-rsPilA NRel to killing, compared with planktonic NTHI” value is given as “significantly more susceptible”; the “sensitivity of anti-rsPilA NRel to killing, compared with planktonic NTHI” value is given as “significantly greater”; the “sensitivity of anti-rsPilA NRel to killing, compared with biofilm-resident NTHI” value is recorded as “significantly more sensitive”; the “killing of planktonic NTHI at the concentration chosen for the assay” value is around 25%. Besides, the “susceptibility of NRel NTHI released by anti-rsPilA, compared with growth on agar” value in assay [3] is on record as “more susceptible”.
Regarding amoxicillin plus clavulanic acid [AMC], in assay [1], the “sensitivity to killing of NTHI biofilms co-exposed to anti-DNABII antiserum, compared to planktonic counterparts” value is “significantly more sensitive”. For the same molecule, in assay [2], the “sensitivity of biofilm-resident NTHI to killing” value is listed as “minimal sensitivity”; the “sensitivity of anti-IHF NRel to killing, compared with planktonic NTHI” value is reported as “significantly more sensitive”; the “sensitivity of anti-IHF NRel to killing, compared with biofilm-resident NTHI” value is listed as “significantly more sensitive”; the “susceptibility of time-matched anti-IHF NRel to killing, compared with planktonic NTHI” value is “significantly more susceptible”. In addition, in assay [2], the “susceptibility of time-matched anti-rsPilA NRel to killing, compared with planktonic NTHI” value is listed as “equally susceptible”; the “sensitivity of anti-rsPilA NRel to killing, compared with planktonic NTHI” value was “only equally as sensitive”; the “sensitivity of anti-rsPilA NRel to killing, compared with biofilm-resident NTHI” value is listed as “significantly more sensitive”; the “killing of planktonic NTHI at the concentration chosen for the assay” value was around 25%.
Take `CC[C@H]1OC(=O)[C@H](C)[C@@H](O[C@H]2C[C@@](C)(OC)[C@@H](O)[C@H](C)O2)[C@H](C)[C@@H](O[C@@H]2O[C@H](C)C[C@H](N(C)C)[C@H]2O)[C@](C)(OC)C[C@@H](C)C(=O)[C@H](C)[C@@H](O)[C@]1(C)O` [clarithromycin]: the “susceptibility of NRel M. catarrhalis released by anti-rsPilA, compared with growth on agar” value in assay [4] is recorded as “more susceptible”.
